Converted amounts (≈) assume the structure as drawn. Where two headings read alike, the source gives them in different places.
Tests used:
Solubility in solvents = assay type: physicochemical
mice = assay: 24 hour acute toxicity in mice; assay type: in vivo
[1] = test system: Candida albicans 155 (yeast); assay: Antifungal MIC, Table 5; assay type: cell-based; conditions: Culture NRRL 477
[2] = test system: Saccharomyces cerevisiae 90 (yeast); assay: Antifungal MIC, Table 5; assay type: cell-based; conditions: Culture ATCC 4226
[3] = test system: Paecilomyces varioti M16 (fungus); assay: Antifungal MIC, Table 5; assay type: cell-based; conditions: Culture ATCC 26820
[4] = test system: Penicillium digitatum 0184 (mold); assay: Antifungal MIC, Table 5; assay type: cell-based; conditions: Culture ATCC 26821
[5] = test system: Piricularia oryzae (rice blast disease); conditions: in vivo
[6] = test system: Puccinia species (cereal rust disease); assay: Activity against plant disease fungi on several crops; assay type: in vivo
[7] = test system: Uromyces species (cereal rust disease); assay: as above; assay type: in vivo
[8] = test system: Botrytis cinerea (grey mold diseases); assay: as above; assay type: in vivo
[9] = test system: Rhizoctonia solani (damping off diseases); assay: as above; assay type: in vivo
Colorado potato beetle = assay: Larvicidal activity; assay type: in vivo
army worm = assay: Larvicidal activity; assay type: in vivo
housefly = assay: Larvicidal activity; assay type: in vivo
bean beetle = assay: Larvicidal activity; assay type: in vivo
mosquito larvae = assay: Larvicidal activity; assay type: in vivo
KB cells = assay: KB monolayer cytotoxicity test; assay type: cell-based, human
crown rust of oats = assay: Fungicidal activity; assay type: in vivo; conditions: spraying as 25% wettable powder
wood decay organisms = assay: Fungicidal activity; assay type: in vivo; conditions: spraying as 25% wettable powder

With C/C=C/[C@H]1O[C@@](O)([C@@H](C)[C@H](O)[C@H](C)[C@H]2OC(=O)/C(OC)=C/C(C)=C/[C@@H](C)[C@@H](O)[C@@H](CC)[C@@H](O)[C@H](C)C/C(C)=C/C=C/[C@@H]2OC)C[C@@H](O[C@H]2C[C@@H](O)[C@H](OC(N)=O)[C@@H](C)O2)[C@@H]1C the solubility (Solubility in solvents; in 95% ethanol) was 47.5 mg/mL (≈ 54800 µM), the solubility (Solubility in solvents; in acetone) was > 100 mg/mL and the solubility (Solubility in solvents; in benzyl alcohol) was > 100 mg/mL. For the same compound, the solubility (Solubility in solvents; in dimethylformamide) was > 100 mg/mL, the solubility (Solubility in solvents; in glycerine) was < 1 mg/mL and the solubility (Solubility in solvents; in methanol) was > 100 mg/mL. The solubility (Solubility in solvents; in polyethylene glycol 400) was < 1 mg/mL, the solubility (Solubility in solvents; in propylene glycol) was < 1 mg/mL and the solubility (Solubility in solvents; in tetrahydrofuran) was > 100 mg/mL. For the same compound, the solubility (Solubility in solvents; in water) was < 1 mg/mL, the “24 hour acute toxicity (LD50)” value (mice; i.p.) was 2.45 mg/kg and the “24 hour acute toxicity (LD50)” value (mice; p.o.) was 21 mg/kg. It also gave an MIC value [1] of 1.11 µg/mL (≈ 1.28 µM), an MIC value [2] of 3.33 µg/mL (≈ 3.84 µM) and an MIC value [3] of 3.33 µg/mL (≈ 3.84 µM). For the same compound, the MIC value [4] was 3.33 µg/mL (≈ 3.84 µM), the “activity against Piricularia oryzae” value [5] was “active” and the fungicidal activity [5] was “exhibits fungicidal activity”. For the same compound, the “activity against Puccinia species” value [6] was “active”, the “activity against Uromyces species” value [7] was “active” and the fungicidal activity ([8]; grey mold, spraying as 25% wettable powder) was “exhibits fungicidal activity”. The “activity against Botrytis cinerea” value ([8]; on several crops) was “active”, the “activity against Rhizoctonia solani” value [9] was “active” and the larvicidal activity (Colorado potato beetle) was “excellent activity”. The larvicidal activity (Colorado potato beetle; spraying on leaves) was “exhibits larvicidal activity”, the larvicidal activity (army worm) was “excellent activity” and the larvicidal activity (housefly) was “excellent activity”. For the same compound, the larvicidal activity (bean beetle) was “excellent activity”, the larvicidal activity (bean beetle; spraying on leaves) was “exhibits larvicidal activity” and the larvicidal activity (mosquito larvae; mosquito larvae) was “excellent activity”. The larvicidal activity (mosquito larvae; mosquito, spraying) was “exhibits larvicidal activity”, the ID50 (KB cells) was 0.0045 µg/mL (≈ 0.0052 µM) and the fungicidal activity (crown rust of oats) was “exhibits fungicidal activity”. The fungicidal activity (wood decay organisms) was “exhibits fungicidal activity”.

From patent US4076802A (priority 1977, dated 1978)
